Data: ChEMBL document CHEMBL4295262, “Evaluation of the utility of stem-cell derived cardiomyocytes for drug proarrhythmic potential” (2019)

How the values were obtained:
Conditions in all cases: human, ipsc-cm
[1] = (§1) Electrical activity assay on cell lines treated with a given drug. DMSO was used as a vehicle and a control, unblinded dofetilide was used as a control.; type: ADME, cell-based; design: FPDc: unit not given here
[2] = as §1; type: ADME, cell-based
[3] = as §1
[4] = as §1; type: ADME, cell-based; design: FPDc: unit not given here; remark: listed apart in the source
[5] = as §1; remark: listed apart in the source
[6] = as §1; type: ADME, cell-based; remark: listed apart in the source
[7] = as §1; remark: listed apart in the source
[8] = as §1; remark: listed apart in the source
[9] = as §1; type: cell-based; design: APDc: unit not given here
[10] = 0.001 µM, concentration (um) 0.001 uM
[11] = 0.01 µM, concentration (um) 0.01 uM
[12] = 0.1 µM, concentration (um) 0.1 uM
[13] = 0.009507 µM, concentration (um) 0.00950736 uM
[14] = 0.03004 µM, concentration (um) 0.0300433 uM
[15] = 0.09494 µM, concentration (um) 0.0949367 uM
[16] = 0.3 µM, concentration (um) 0.3 uM
[17] = 10 µM, concentration (um) 10 uM
[18] = 100 µM, concentration (um) 100 uM
[19] = 0.003169 µM, concentration (um) 0.00316912 uM
[20] = 0.01001 µM, concentration (um) 0.0100144 uM
[21] = 0.03165 µM, concentration (um) 0.0316456 uM

## COc1ccc(CCN(C)CCCC(C#N)(c2ccc(OC)c(OC)c2)C(C)C)cc1OC (stereo not drawn) [VERAPAMIL]
[1]; [10]
  FPD measurement: 5 Values Out Of 5 Were Excluded Due To Quiescence Or 0 Apdc
  FPDc: 48.96
[1]; [11]
  FPD measurement: 5 Values Out Of 5 Were Excluded Due To Quiescence Or 0 Apdc
  FPDc: 54.23
[1]; [12]
  FPD measurement: 5 Values Out Of 5 Were Excluded Due To Quiescence Or 0 Apdc
  FPDc: 56.48
[1]; 1 µM, concentration (um) 1 uM
  FPD measurement: 5 Values Out Of 5 Were Excluded Due To Quiescence Or 0 Apdc
  FPDc: 50.52
[2]; [10]
  FPD measurement: 52.61 FPDc
  FPDc: 6 Values Out Of 6 Were Excluded Due To Quiescence Or 0 Fpdc
[2]; [11]
  FPD measurement: 58.45 FPDc
  FPDc: 6 Values Out Of 6 Were Excluded Due To Quiescence Or 0 Fpdc
[2]; [12]
  FPDc: 6 Values Out Of 6 Were Excluded Due To Quiescence Or 0 Fpdc
[2]; 1 µM, concentration (um) 1 uM
  FPDc: 6 Values Out Of 6 Were Excluded Due To Quiescence Or 0 Fpdc
[3]; 0.001 µM
  FPD measurement: 1 Values Out Of 1 Were Excluded Due To Quiescence Or 0 Fpdc
  FPDc: 1 Values Out Of 1 Were Excluded Due To Quiescence Or 0 Fpdc
[3]; 0.01 µM
  FPD measurement: 1 Values Out Of 1 Were Excluded Due To Quiescence Or 0 Fpdc
  FPDc: 1 Values Out Of 1 Were Excluded Due To Quiescence Or 0 Fpdc
[3]; 0.1 µM
  FPD measurement: 1 Values Out Of 1 Were Excluded Due To Quiescence Or 0 Fpdc
  FPDc: 1 Values Out Of 1 Were Excluded Due To Quiescence Or 0 Fpdc
[3]; 1 µM
  FPD measurement: 1 Values Out Of 1 Were Excluded Due To Quiescence Or 0 Fpdc
  FPDc: 1 Values Out Of 1 Were Excluded Due To Quiescence Or 0 Fpdc
[4]; [10]
  FPDc: 0.02679
[4]; [11]
  FPDc: 0.03865
[4]; [12]
  FPD measurement: More Than Half The Wells Had A Quiescence Event Or Fpdc Readings Of 0
  FPDc: More Than Half The Wells Had A Quiescence Event Or Fpdc Readings Of 0
[4]; 1 µM, concentration (um) 1 uM
  FPD measurement: More Than Half The Wells Had A Quiescence Event Or Fpdc Readings Of 0
  FPDc: More Than Half The Wells Had A Quiescence Event Or Fpdc Readings Of 0

## CCOC(=O)C1=C(C)NC(C)=C(C(=O)OC)C1c1cccc([N+](=O)[O-])c1 (stereo not drawn) [NITRENDIPINE]
[5]; 0.009507 µM
  APDc: 66.7
  FPD measurement: 66.7 FPDc
[5]; 0.03004 µM
  APDc: 75.75
  FPD measurement: 75.75 FPDc
[5]; 0.09494 µM
  APDc: More Than Half The Wells Had A Quiescence Event Or Apdc Readings Of 0
  FPD measurement: More Than Half The Wells Had A Quiescence Event Or Apdc Readings Of 0
[5]; 0.3 µM
  APDc: More Than Half The Wells Had A Quiescence Event Or Apdc Readings Of 0
  FPD measurement: More Than Half The Wells Had A Quiescence Event Or Apdc Readings Of 0
[6]; [13]
  FPD measurement: More Than Half The Wells Had A Quiescence Event Or Apdc Readings Of 0
  FPDc: More Than Half The Wells Had A Quiescence Event Or Fpdc Readings Of 0
[6]; [14]
  FPD measurement: More Than Half The Wells Had A Quiescence Event Or Apdc Readings Of 0
  FPDc: More Than Half The Wells Had A Quiescence Event Or Fpdc Readings Of 0
[6]; [15]
  FPD measurement: More Than Half The Wells Had A Quiescence Event Or Apdc Readings Of 0
  FPDc: More Than Half The Wells Had A Quiescence Event Or Fpdc Readings Of 0
[6]; [16]
  FPD measurement: 5 Values Out Of 5 Were Excluded Due To Quiescence Or 0 Apdc
  FPDc: 5 Values Out Of 5 Were Excluded Due To Quiescence Or 0 Fpdc
[2]; [13]
  FPD measurement: 39.69 FPDc
  FPDc: 6 Values Out Of 6 Were Excluded Due To Quiescence Or 0 Fpdc
[2]; [14]
  FPDc: 6 Values Out Of 6 Were Excluded Due To Quiescence Or 0 Fpdc
[2]; [15]
  FPDc: 6 Values Out Of 6 Were Excluded Due To Quiescence Or 0 Fpdc
[2]; [16]
  FPDc: 6 Values Out Of 6 Were Excluded Due To Quiescence Or 0 Fpdc
[3]; 0.009507 µM
  FPD measurement: 1 Values Out Of 1 Were Excluded Due To Quiescence Or 0 Fpdc
  FPDc: 1 Values Out Of 1 Were Excluded Due To Quiescence Or 0 Fpdc
[3]; 0.03004 µM
  FPD measurement: 1 Values Out Of 1 Were Excluded Due To Quiescence Or 0 Fpdc
  FPDc: 1 Values Out Of 1 Were Excluded Due To Quiescence Or 0 Fpdc
[3]; 0.09494 µM
  FPD measurement: 1 Values Out Of 1 Were Excluded Due To Quiescence Or 0 Fpdc
  FPDc: 1 Values Out Of 1 Were Excluded Due To Quiescence Or 0 Fpdc
[3]; 0.3 µM
  FPD measurement: 1 Values Out Of 1 Were Excluded Due To Quiescence Or 0 Fpdc
  FPDc: 1 Values Out Of 1 Were Excluded Due To Quiescence Or 0 Fpdc
[7]; 0.009507 µM
  FPD measurement: 5 Values Out Of 5 Were Excluded Due To Quiescence Or 0 Apdc
  FPDc: 63.48
[7]; 0.03004 µM
  FPD measurement: 5 Values Out Of 5 Were Excluded Due To Quiescence Or 0 Apdc
  FPDc: 45.72
[7]; 0.09494 µM
  FPDc: 31.81
[7]; 0.3 µM
  FPD measurement: 5 Values Out Of 5 Were Excluded Due To Quiescence Or 0 Apdc
  FPDc: 19.65

## Cc1cccc(C)c1OCC(C)N (stereo not drawn) [MEXILETINE]
[1]; [12]
  FPDc: 43.08
[1]; 1 µM, concentration (um) 1 uM
  FPDc: 54.07
[1]; [17]
  FPDc: 64.26
[1]; [18]
  FPDc: 63.72
[5]; 0.1 µM
  APDc: 53
  FPD measurement: 53 FPDc
[5]; 1 µM
  APDc: 57.83
  FPD measurement: 57.83 FPDc
[5]; 10 µM
  APDc: 63.09
  FPD measurement: 63.09 FPDc
[5]; 100 µM
  APDc: 74.46
  FPD measurement: 74.46 FPDc
[3]; 0.1 µM
  FPD measurement: 1 Values Out Of 1 Were Excluded Due To Quiescence Or 0 Fpdc
  FPDc: 1 Values Out Of 1 Were Excluded Due To Quiescence Or 0 Fpdc
[3]; 1 µM
  FPD measurement: 1 Values Out Of 1 Were Excluded Due To Quiescence Or 0 Fpdc
  FPDc: 1 Values Out Of 1 Were Excluded Due To Quiescence Or 0 Fpdc
[3]; 10 µM
  FPD measurement: 1 Values Out Of 1 Were Excluded Due To Quiescence Or 0 Fpdc
  FPDc: 1 Values Out Of 1 Were Excluded Due To Quiescence Or 0 Fpdc
[3]; 100 µM
  FPD measurement: 1 Values Out Of 1 Were Excluded Due To Quiescence Or 0 Fpdc
  FPDc: 1 Values Out Of 1 Were Excluded Due To Quiescence Or 0 Fpdc
[7]; 0.1 µM
  FPDc: 67.46
[7]; 1 µM
  FPDc: 77.46
[7]; 10 µM
  FPDc: 87.68
[7]; 100 µM
  FPDc: 95.17

## CCOC(=O)N1CCC(=C2c3ccc(Cl)cc3CCc3cccnc32)CC1 [LORATADINE]
[3]; 0.0009507 µM
  FPD measurement: 1 Values Out Of 1 Were Excluded Due To Quiescence Or 0 Fpdc
  FPDc: 1 Values Out Of 1 Were Excluded Due To Quiescence Or 0 Fpdc
[3]; 0.003004 µM
  FPD measurement: 1 Values Out Of 1 Were Excluded Due To Quiescence Or 0 Fpdc
  FPDc: 1 Values Out Of 1 Were Excluded Due To Quiescence Or 0 Fpdc
[3]; 0.009494 µM
  FPD measurement: 1 Values Out Of 1 Were Excluded Due To Quiescence Or 0 Fpdc
  FPDc: 1 Values Out Of 1 Were Excluded Due To Quiescence Or 0 Fpdc
[3]; 0.03 µM
  FPD measurement: 1 Values Out Of 1 Were Excluded Due To Quiescence Or 0 Fpdc
  FPDc: 1 Values Out Of 1 Were Excluded Due To Quiescence Or 0 Fpdc
[4]; 0.0009507 µM, concentration (um) 0.000950736 uM
  FPDc: 0.02441
[4]; 0.003004 µM, concentration (um) 0.00300433 uM
  FPDc: 0.02167
[4]; 0.009494 µM, concentration (um) 0.00949367 uM
  FPDc: 0.02089
[4]; 0.03 µM, concentration (um) 0.03 uM
  FPDc: 0.02123
[8]; 0.0009507 µM
  FPD measurement: 54.17 FPDc
  FPDc: 54.17
[8]; 0.003004 µM
  FPD measurement: 54.08 FPDc
  FPDc: 54.08
[8]; 0.009494 µM
  FPD measurement: 55.38 FPDc
  FPDc: 55.38
[8]; 0.03 µM
  FPD measurement: 55.57 FPDc
  FPDc: 55.57

## CC[C@H]1OC(=O)[C@H](C)[C@@H](O[C@H]2C[C@@](C)(OC)[C@@H](O)[C@H](C)O2)[C@H](C)[C@@H](O[C@@H]2O[C@H](C)C[C@H](N(C)C)[C@H]2O)[C@](C)(OC)C[C@@H](C)C(=O)[C@H](C)[C@@H](O)[C@]1(C)O [CLARITHROMYCIN]
[4]; [12]
  FPDc: 0.03502
[4]; 1 µM, concentration (um) 1 uM
  FPDc: 0.03611
[4]; [17]
  FPDc: 0.04288
[4]; [18]
  FPDc: 0.03271
[9]; [12]
  APDc: 48.18
  FPD measurement: 48.18 FPDc
[9]; 1 µM, concentration (um) 1 uM
  APDc: 53.12
  FPD measurement: 53.12 FPDc
[9]; [17]
  APDc: 61.24
  FPD measurement: 61.24 FPDc
[9]; [18]
  APDc: 79.49
  FPD measurement: 79.49 FPDc

## Cc1nc2n(c(=O)c1CCN1CCC(c3noc4cc(F)ccc34)CC1)CCCC2 [RISPERIDONE]
[1]; [19]
  FPD measurement: 5 Values Out Of 5 Were Excluded Due To Quiescence Or 0 Apdc
  FPDc: 54.79
[1]; [20]
  FPD measurement: 5 Values Out Of 5 Were Excluded Due To Quiescence Or 0 Apdc
  FPDc: 49.58
[1]; [21]
  FPD measurement: 5 Values Out Of 5 Were Excluded Due To Quiescence Or 0 Apdc
  FPDc: 47.1
[1]; [12]
  FPD measurement: 5 Values Out Of 5 Were Excluded Due To Quiescence Or 0 Apdc
  FPDc: 61.9
[3]; 0.003169 µM
  FPD measurement: 1 Values Out Of 1 Were Excluded Due To Quiescence Or 0 Fpdc
  FPDc: 1 Values Out Of 1 Were Excluded Due To Quiescence Or 0 Fpdc
[3]; 0.01001 µM
  FPD measurement: 1 Values Out Of 1 Were Excluded Due To Quiescence Or 0 Fpdc
  FPDc: 1 Values Out Of 1 Were Excluded Due To Quiescence Or 0 Fpdc
[3]; 0.03165 µM
  FPD measurement: 1 Values Out Of 1 Were Excluded Due To Quiescence Or 0 Fpdc
  FPDc: 1 Values Out Of 1 Were Excluded Due To Quiescence Or 0 Fpdc
[3]; 0.1 µM
  FPD measurement: 1 Values Out Of 1 Were Excluded Due To Quiescence Or 0 Fpdc
  FPDc: 1 Values Out Of 1 Were Excluded Due To Quiescence Or 0 Fpdc
[4]; [19]
  FPDc: 0.03911
[4]; [20]
  FPDc: 0.03923
[4]; [21]
  FPDc: 0.03847
[4]; [12]
  FPDc: 0.03663
[8]; 0.003169 µM
  FPD measurement: 55.22 FPDc
  FPDc: 55.22
[8]; 0.01001 µM
  FPD measurement: 55.61 FPDc
  FPDc: 55.61
[8]; 0.03165 µM
  FPD measurement: 57.01 FPDc
  FPDc: 57.01
[8]; 0.1 µM
  FPD measurement: 65.06 FPDc
  FPDc: 65.06
